Common to all, as to experiment: relative viability (nuclei count vs DMSO), 5 days (fraction); higher = more cells survive
Compound in the experiment “XMD14-99 + Crizotinib”: CN1CCN(CC1)C2=CC(=C(C=C2)NC3=NC(=C(S3)C(=O)C4=C(C=CC=C4Cl)Cl)N)OC [XMD14-99] + C[C@@H](Oc1cc(-c2cnn(C3CCNCC3)c2)cnc1N)c1c(Cl)ccc(F)c1Cl [Crizotinib] (partner 1 µM)
In a few lines:
(§1)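 The day after seeding in 1536-well plates, lung cancer cell lines were treated by pin tool with a single drug, or with a fixed anchor-drug dose together with five library-drug doses (not always all listed) in √10 steps. After 5 days, a combined fix-and-stain solution (final 0.05% Triton X-100, 1% formaldehyde, 1 ug/ml Hoechst) was added. Nuclei counted on 4× images gave relative viability as treated counts over vehicle counts, reported as the median of duplicate plates.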

Compound in the experiment “XMD14-99 + Pemetrexed”: CN1CCN(CC1)C2=CC(=C(C=C2)NC3=NC(=C(S3)C(=O)C4=C(C=CC=C4Cl)Cl)N)OC [XMD14-99] + Nc1nc2[nH]cc(CCc3ccc(C(=O)N[C@@H](CCC(=O)O)C(=O)O)cc3)c2c(=O)[nH]1 [Pemetrexed] (partner 0.2 µM)
In a few lines:
as §1

Compound in the experiment “AZD1208 + OSI-027”: N[C@@H]1CCCN(c2c(/C=C3\SC(=O)NC3=O)cccc2-c2ccccc2)C1 [AZD1208] + COc1cccc2cc(-c3nc([C@H]4CC[C@H](C(=O)O)CC4)n4ncnc(N)c34)[nH]c12 [OSI-027] (partner 0.5 µM)
A digest of the protocol: as §1

Compound in the experiment “XMD14-99 + Luminespib”: CN1CCN(CC1)C2=CC(=C(C=C2)NC3=NC(=C(S3)C(=O)C4=C(C=CC=C4Cl)Cl)N)OC [XMD14-99] + CCNC(=O)c1noc(-c2cc(C(C)C)c(O)cc2O)c1-c1ccc(CN2CCOCC2)cc1 [Luminespib] (partner 0.01 µM)
A digest of the protocol:
as §1

This is an account of results in the supplement of paper PMC10307832.

Regarding HCC-78, the relative viability in the experiment with XMD14-99 + Crizotinib (first compound 0.08 µM) worked out at 0.325; with XMD14-99 + Crizotinib (first compound 0.8 µM), 0.319; with XMD14-99 + Crizotinib (first compound 2.53 µM) it was 0.351; in the experiment with XMD14-99 + Crizotinib (first compound 8 µM), 0.255; with XMD14-99 + Pemetrexed (first compound 0.08 µM), 0.852; in the experiment with XMD14-99 + Pemetrexed (first compound 0.8 µM), 0.899. Also, the relative viability in the experiment with XMD14-99 + Pemetrexed (first compound 2.53 µM) was determined as 0.943; with XMD14-99 + Pemetrexed (first compound 8 µM), 0.934; in the experiment with AZD1208 + OSI-027 (first compound 0.08 µM), 0.41; with AZD1208 + OSI-027 (first compound 0.253 µM), 0.395; in the experiment with AZD1208 + OSI-027 (first compound 0.8 µM), 0.375; with AZD1208 + OSI-027 (first compound 2.53 µM) it was 0.374. Further, the relative viability in the experiment with AZD1208 + OSI-027 (first compound 8 µM) was 0.332.
With HCC-366, the relative viability in the experiment with XMD14-99 + Crizotinib (first compound 0.08 µM) stood at 0.494; with XMD14-99 + Crizotinib (first compound 0.8 µM), 0.503; in the experiment with XMD14-99 + Crizotinib (first compound 2.53 µM), 0.478; with XMD14-99 + Crizotinib (first compound 8 µM), 0.497; with XMD14-99 + Pemetrexed (first compound 0.08 µM), 0.219; with XMD14-99 + Pemetrexed (first compound 0.8 µM) it was 0.18. Further, the relative viability with XMD14-99 + Pemetrexed (first compound 2.53 µM) is 0.18; in the experiment with XMD14-99 + Pemetrexed (first compound 8 µM) it was 0.128; with AZD1208 + OSI-027 (first compound 0.08 µM), 0.963; with AZD1208 + OSI-027 (first compound 0.253 µM), 0.96; in the experiment with AZD1208 + OSI-027 (first compound 0.8 µM), 0.837; in the experiment with AZD1208 + OSI-027 (first compound 2.53 µM), 0.819. The relative viability with AZD1208 + OSI-027 (first compound 8 µM) turned out to be 0.672.
As for HCC-827, the relative viability with XMD14-99 + Luminespib (first compound 0.08 µM) stood at 0.492; with XMD14-99 + Luminespib (first compound 0.8 µM) it was 0.669; with XMD14-99 + Luminespib (first compound 2.53 µM), 0.595; with XMD14-99 + Luminespib (first compound 8 µM), 0.617; in the experiment with XMD14-99 + Crizotinib (first compound 0.08 µM), 0.857; in the experiment with XMD14-99 + Crizotinib (first compound 0.8 µM), 0.906. For the same cell line, the relative viability with XMD14-99 + Crizotinib (first compound 2.53 µM) is 0.754; in the experiment with XMD14-99 + Crizotinib (first compound 8 µM), 0.752; with XMD14-99 + Pemetrexed (first compound 0.08 µM), 0.214; with XMD14-99 + Pemetrexed (first compound 0.8 µM) it was 0.255; with XMD14-99 + Pemetrexed (first compound 2.53 µM), 0.265; with XMD14-99 + Pemetrexed (first compound 8 µM), 0.218. In addition, the relative viability turned out to be 0.688 with AZD1208 + OSI-027 (first compound 0.08 µM); 0.751 with AZD1208 + OSI-027 (first compound 0.253 µM); 0.707 in the experiment with AZD1208 + OSI-027 (first compound 0.8 µM); 0.617 in the experiment with AZD1208 + OSI-027 (first compound 2.53 µM); 0.667 with AZD1208 + OSI-027 (first compound 8 µM).
As for HOP-62, the relative viability came to 0.93 in the experiment with XMD14-99 + Luminespib (first compound 0.08 µM); 0.878 with XMD14-99 + Luminespib (first compound 0.8 µM); 0.846 with XMD14-99 + Luminespib (first compound 2.53 µM); 0.778 in the experiment with XMD14-99 + Luminespib (first compound 8 µM); 1.06 in the experiment with XMD14-99 + Crizotinib (first compound 0.08 µM); 0.942 with XMD14-99 + Crizotinib (first compound 0.8 µM). In addition, the relative viability was 0.883 in the experiment with XMD14-99 + Crizotinib (first compound 2.53 µM); 0.663 with XMD14-99 + Crizotinib (first compound 8 µM); 0.368 with XMD14-99 + Pemetrexed (first compound 0.08 µM); 0.364 with XMD14-99 + Pemetrexed (first compound 0.8 µM); 0.36 in the experiment with XMD14-99 + Pemetrexed (first compound 2.53 µM); 0.331 with XMD14-99 + Pemetrexed (first compound 8 µM). Besides, the relative viability with AZD1208 + OSI-027 (first compound 0.08 µM) is 0.863; in the experiment with AZD1208 + OSI-027 (first compound 0.253 µM), 0.965; with AZD1208 + OSI-027 (first compound 0.8 µM) it was 0.726; with AZD1208 + OSI-027 (first compound 2.53 µM), 0.642; with AZD1208 + OSI-027 (first compound 8 µM), 0.632.
Take IA-LM: the relative viability with XMD14-99 + Crizotinib (first compound 0.08 µM) came out at 0.742; with XMD14-99 + Crizotinib (first compound 0.8 µM), 0.561; with XMD14-99 + Crizotinib (first compound 2.53 µM), 0.435; with XMD14-99 + Crizotinib (first compound 8 µM), 0.331.
For LC-2-ad, the relative viability came to 1.04 in the experiment with XMD14-99 + Luminespib (first compound 0.08 µM); 0.984 with XMD14-99 + Luminespib (first compound 0.8 µM); 0.824 with XMD14-99 + Luminespib (first compound 2.53 µM); 0.582 with XMD14-99 + Luminespib (first compound 8 µM); 0.424 in the experiment with XMD14-99 + Crizotinib (first compound 0.08 µM); 0.461 in the experiment with XMD14-99 + Crizotinib (first compound 0.8 µM). Further, the relative viability was determined as 0.478 with XMD14-99 + Crizotinib (first compound 2.53 µM); 0.414 with XMD14-99 + Crizotinib (first compound 8 µM); 0.268 with XMD14-99 + Pemetrexed (first compound 0.08 µM); 0.298 with XMD14-99 + Pemetrexed (first compound 0.8 µM); 0.268 with XMD14-99 + Pemetrexed (first compound 2.53 µM); 0.293 in the experiment with XMD14-99 + Pemetrexed (first compound 8 µM). Further, the relative viability was 0.788 with AZD1208 + OSI-027 (first compound 0.08 µM); 0.776 with AZD1208 + OSI-027 (first compound 0.253 µM); 0.624 in the experiment with AZD1208 + OSI-027 (first compound 0.8 µM); 0.707 with AZD1208 + OSI-027 (first compound 2.53 µM); 0.651 with AZD1208 + OSI-027 (first compound 8 µM).
As to LCLC-97TM1, the relative viability is 0.843 with XMD14-99 + Luminespib (first compound 0.08 µM); 0.747 with XMD14-99 + Luminespib (first compound 0.8 µM); 0.728 with XMD14-99 + Luminespib (first compound 2.53 µM); 0.516 with XMD14-99 + Luminespib (first compound 8 µM); 0.397 with XMD14-99 + Crizotinib (first compound 0.08 µM); 0.364 with XMD14-99 + Crizotinib (first compound 0.8 µM). The relative viability with XMD14-99 + Crizotinib (first compound 2.53 µM) was 0.303; with XMD14-99 + Crizotinib (first compound 8 µM), 0.222; in the experiment with XMD14-99 + Pemetrexed (first compound 0.08 µM) it was 0.19; with XMD14-99 + Pemetrexed (first compound 0.8 µM) it was 0.173; with XMD14-99 + Pemetrexed (first compound 2.53 µM), 0.198; with XMD14-99 + Pemetrexed (first compound 8 µM), 0.167. For the same cell line, the relative viability with AZD1208 + OSI-027 (first compound 0.08 µM) was determined as 0.456; with AZD1208 + OSI-027 (first compound 0.253 µM), 0.476; with AZD1208 + OSI-027 (first compound 0.8 µM), 0.344; in the experiment with AZD1208 + OSI-027 (first compound 2.53 µM), 0.354; with AZD1208 + OSI-027 (first compound 8 µM), 0.29.
LCLC-103H: the relative viability with XMD14-99 + Luminespib (first compound 0.08 µM) came to 0.984; with XMD14-99 + Luminespib (first compound 0.8 µM) it was 1.1; in the experiment with XMD14-99 + Luminespib (first compound 2.53 µM) it was 0.84; with XMD14-99 + Luminespib (first compound 8 µM), 0.847; in the experiment with XMD14-99 + Crizotinib (first compound 0.08 µM), 0.986; with XMD14-99 + Crizotinib (first compound 0.8 µM) it was 1.02. The relative viability was 1.01 with XMD14-99 + Crizotinib (first compound 2.53 µM); 0.989 with XMD14-99 + Crizotinib (first compound 8 µM); 0.467 with XMD14-99 + Pemetrexed (first compound 0.08 µM); 0.475 with XMD14-99 + Pemetrexed (first compound 0.8 µM); 0.426 in the experiment with XMD14-99 + Pemetrexed (first compound 2.53 µM); 0.468 with XMD14-99 + Pemetrexed (first compound 8 µM). The relative viability came to 0.485 with AZD1208 + OSI-027 (first compound 0.08 µM); 0.371 with AZD1208 + OSI-027 (first compound 0.253 µM); 0.378 with AZD1208 + OSI-027 (first compound 0.8 µM); 0.382 with AZD1208 + OSI-027 (first compound 2.53 µM); 0.376 with AZD1208 + OSI-027 (first compound 8 µM).
Regarding LK-2, the relative viability is 0.183 with XMD14-99 + Luminespib (first compound 0.08 µM); 0.188 with XMD14-99 + Luminespib (first compound 0.8 µM); 0.206 with XMD14-99 + Luminespib (first compound 2.53 µM); 0.171 in the experiment with XMD14-99 + Luminespib (first compound 8 µM); 0.232 in the experiment with XMD14-99 + Crizotinib (first compound 0.08 µM); 0.193 with XMD14-99 + Crizotinib (first compound 0.8 µM). Also, the relative viability with XMD14-99 + Crizotinib (first compound 2.53 µM) is 0.2; in the experiment with XMD14-99 + Crizotinib (first compound 8 µM), 0.223; in the experiment with XMD14-99 + Pemetrexed (first compound 0.08 µM), 0.219; with XMD14-99 + Pemetrexed (first compound 0.8 µM) it was 0.247; in the experiment with XMD14-99 + Pemetrexed (first compound 2.53 µM), 0.258; with XMD14-99 + Pemetrexed (first compound 8 µM), 0.119. The relative viability in the experiment with AZD1208 + OSI-027 (first compound 0.08 µM) came to 0.184; with AZD1208 + OSI-027 (first compound 0.253 µM) it was 0.155; in the experiment with AZD1208 + OSI-027 (first compound 0.8 µM) it was 0.157; in the experiment with AZD1208 + OSI-027 (first compound 2.53 µM), 0.123; in the experiment with AZD1208 + OSI-027 (first compound 8 µM) it was 0.144.
